{
  "source": "patent US5821251A",
  "about": "“Nitrogen heterocycles” (John Wyeth & Brother Limited, priority 1994, dated 1998)",
  "key": {"[1]": {"system": "voltage gated potassium channels (transient outward current, TOC) in dorsal root ganglion (DRG) cells", "assay": "Procedure 1: modulation of voltage-activated K^+ currents in dorsal root ganglion (DRG) cells, block of TOC", "assay_type": "cell-based", "excerpt": "They may therefore by used to treat CNS disorders as described above such as depression, pain psychoses, anxiety, movement disorders (such as Parkinson's disease) and multiple sclerosis and in enhancing cognition, memory and learning.\nProcedure 1 Modulation of voltage-activated K^+ currents in dorsal root ganglion (DRG) cells:\nThe method used in the culture or dorsal root ganglion cells is similar to that described by Wood et. al., Capsaicin induced ion fluxes in dorsal root ganglion cells in culture, J. Neuroscience, 8, 3208-3220) (1988). Dorsal root ganglia are dissected mainly from around the lumbar and thoracic vertebrae and placed in a conical centrifuge tube containing Ham's F14 nutrient mixture (F14:Imperial Laboratories) plus horse serum (HS: GIBCO or Flow). When all ganglia have been collected (ex ca. 14 pups) the excess medium is removed and the ganglia incubated for 30 min in \"F14+HS\" containing 0.1% collagenase Type 1A-S (Sigma). Excess medium is removed, ganglia washed in 4 ml F14 (no HS), resuspended and spun down at 900 g for 10 s. The supernatant is again removed and replaced with 1.8 ml F14 (no HS) plus 0.2 ml trypsin (GIBCO) at a final concentration of 0.25%. The ganglia are then incubated at 37° C. for 30 min agitating every 10 min to prevent clumping. The trypsinisation is inhibited by the addition of 6 ml \"F14+HS\" and cells are resuspended and centrifuged as before. The medium is removed and 2 ml added of \"F14+HS\" containing 0.4% DNAase 1 (Sigma). The ganglia are then triturated gently 15-20× using a siliconised pasteur pipette, filtered through a […] nylon mesh filter and collected into a centrifuge tube. The filter is further washed with 2 ml of \"F14+HS\" which is collected into the same tube. The suspension is spun at 900 g for 3 min, the supernatant removed and the cells resuspended in DRG Growth Medium (DRG-GM) which consists of: HAMS F14 nutrient mixture (40%, v/v), HS(10%, v/v) C6 conditioned medium (50%, v/v), penicillin/streptomycin (100 U/ml; 100 μg/ml) and NGF (30 μg/ml). Cells are then plated out onto five 60 mm poly-L-lysine-coated tissue culture petri dishes (see below).\nAfter a few days in culture (3-7 days, usually), cells are resuspended from 60 mm dishes using a 0.25% solution of trypsin in F14. An equal volume of DRG-GM is added to inhibit the trypsin, the cells are spun at 900 g for 5 minutes and resuspended in 0.25-0.5 ml of DRG-GM. Neurites are removed by gentle trituration through a 21 g syringe needle (15-20 strokes) and a drop of the cell suspension is then placed on each of 5-6 poly-D-lysine- and laminin-coated 35 mm petri dishes (see below). After 30 minutes incubation at 37° C., each plate is flooded with ca 1.5 ml DRG-GM and after about 1 hour incubation, cells are ready for electrophysiological recording. This final step is carried out specifically in order to remove neurites which hinder good voltage-clamp of the cells.\n2 ml of poly-D-lysine (Sigma), reconstituted in distilled water to 100 μg/ml, are added to each plate and left for 1-2 hours. Plates are then washed with water and left to dry. Laminin (5 μg/ml) is added as a drop to the centre of plates (previously coated with poly-D-Lys), left for 45 min before removal of excess and use of plates.\nRecordings are made using an AxoClamp-2A (Axon Instruments Inc) switiching clamp amplifier using patch electrodes (4-8 Mohms), made from borosilicate glass capillary tubes (GC150TF-10, Clark Electromedical) and fire-polished. Electrodes are filled with (in mM): 140 K Gluconate, 2 MgCl2, 1.1 EGTA/KOH, 5 HEPES, 20 sucrose, 2 MgATP, 0.2 GTP; pH set to 7.2 with KOH and osmolarity adjusted with sucrose to 310 mOsm. The electrodes are then and dipped in Sigmacote (Sigma) prior to recording to reduce stray capacitance. […]"}, "[2]": {"system": "transient outward potassium current (TOC) in GH3 rat pituitary cell line", "assay": "Procedure 2: blocking transient outward potassium currents (TOC) in the GH3 rat pituitary cell line", "assay_type": "cell-based", "conditions": "GH3 cells; for % Block of TOC, PROCEDURE 2 GH3 %: 100 μM", "procedure": "The compounds were also tested for blocking transient outward potassium currents (TOC) in the GH3 rat pituitary cell line according to the procedure below:\nGH3 cells were obtained from either Flow Laboratories or European Centre for Animal Cell Cultures (Porton Down), and maintained in tissue culture using standard procedures and media for this cell line. Cells were plated on 35 mm plastic dishes and used subsequently for electophysiology with 1 to 10 days.\nCurrents were recorded using the whole-cell voltage clamp configuration of the patch clamp technique, using an Axopatch 1C amplifier (Axon Instruments). Patch electrodes were manufactured from aluminosilicate glass tubing (Clark Electomedical SM150F-10) and heat polished prior to use. Resistance was 1-5 M.OMEGA.. No electrode coating was necessary for whole-cell recording. Signal acquisition and analysis was performed using pClamp software (Axon Instruments). A p-on-4 subtraction procedure was used to remove leak and capacitative currents on line. A holding potential of -100 mV was routinely used: this avoided accumulation of slow voltage-dependent inactivation.\nTwo main protocols were used in testing drugs. 1) Current-voltage (I-V) curves were collected, with incrementing steps of either 10 or 20 mV. Full I-V curves were obtained both in control and drug solutions. 2) a `pharmacology` program, which involved single voltage steps fromm -100 to +60 mV, applied and collected at 20 s intervals. Compounds under investigation were applied via a `U` tube rapid application system to a small area of the recording chamber. Drug applications were always bracketed by control solutions to ensure reversibility. The recording chamber was continously perfused at 1-5 ml.min^-1. Results are expressed at % of control peak current (step form -100 to +60 mV). However, where drugs have a time dependent effect on TOC, i.e acceleration of TOC decay, results are also expressed as a % of total charge transferred within a defined period of the voltage step from -100 to +60 mV.\nThe standard extracellular solution contained (in mM): NaCl 135 (or choline or TRIS chloride); KCl 5; MgCl2 4; EGTA 1; TEACl 10; HEPES 10; glucose 25; pH set to 7.4 with NaOH. TTX was usually at 100-200 nM.\nThe intracellular (pipette) solution was comprised of (in mM): K aspartate 120; KCl 20; MgCl2 1; cAMP 1; MgATP 2; EGTA 10; HEPES 10; pH 7.4 with KOH. Other intracellular substrates were often used without noticeable effect. This solution was stored in 1 ml aliquots at -4° C., and filtered at 0.2 μm.\nThese recording solutions precluded activation of voltage dependent Na, Ca, delayed rectifier and Ca-activated K currents. The resulting whole-cell currents chiefly comprised the transient outward potassium current, switching on with third power kinetics reaching peak amplitudes of ~1 nA at +60 mV, and a double exponential decay (time constants of ~30 and 160 ms at +60 mV). There is no significant change in current amplitude within the normal recording period, which may extend for up to 90 min. One dish of cells usually lasts several hours.\nThe standard compound 4-aminopyridine is a block @ 1-5 mM. (80% block at 5 mM)."}},
  "data": [
    {"compound": "COc1ccc(C[C@H]2CC[C@H]3NCCC[C@H]3C2)cc1", "note": "[Example 9, (-)-(4aS,6S,8aR)-3,4,4a,5,6,7,8,8a-Decahydro-6-((4-methoxyphenyl)methyl)quinoline]", "values": [
      {"measurement": "% Block of TOC, PROCEDURE 1 DRG %", "setting": "[1]; 10 μM", "value": 28, "unit": "%"}
    ]},
    {"compound": "COc1ccc(C[C@@H]2CC[C@H]3NC[C@H](CO)C[C@@H]3C2)cc1", "note": "[Example 6, (+)-(3R,4aS,6R,8aR)-1,2,3,4,4a,5,6,7,8,8a-Decahydro-3-hydroxymethyl-6-((4-methoxyphenyl)methyl)quinoline]", "values": [
      {"measurement": "% Block of TOC, PROCEDURE 1 DRG %", "setting": "[1]; 10 μM", "value": 29, "unit": "%"}
    ]},
    {"compound": "COc1ccc(C[C@H]2CC[C@H]3NC[C@H](CO)C[C@H]3C2)cc1", "note": "(racemic) [Example 4, (±)-(3RS,4aRS,6SR,8aRS)-1,2,3,4,4a,5,6,7,8,8a-Decahydro-3-hydroxymethyl-6-((4-methoxyphenyl)methyl)quinoline]", "values": [
      {"measurement": "% Block of TOC, PROCEDURE 1 DRG %", "setting": "[1]; 100 μM", "value": 60, "unit": "%"},
      {"measurement": "% Block of TOC, PROCEDURE 2 GH3 %", "setting": "[2]", "value": 56, "unit": "%"}
    ]},
    {"compound": "COc1ccc(C[C@H]2CC[C@@H]3[C@@H](CCCN3[C@H](C)c3ccccc3)C2)cc1", "note": "[Example 8, (+)-(1'R,4aS,6S,8aR)-1,2,3,4,4a,5,6,7,8,8a-Decahydro-6-((4-methoxyphenyl)methyl)-1-(1'-phenylethyl)quinoline]", "values": [
      {"measurement": "% Block of TOC, PROCEDURE 1 DRG %", "setting": "[1]; 10 μM", "value": 49, "unit": "%"}
    ]},
    {"compound": "COc1ccc(C[C@H]2CC[C@@H]3NC[C@H](CO)C[C@H]3C2)cc1", "note": "(relative stereo) [Example 3, (±)-(3RS,4aRS,6SR,8aSR)-1,2,3,4,4,a,5,6,7,8,8a-Decahydro-3-hydroxymethyl-6-((4-methoxyphenyl)methyl)quinoline]", "values": [
      {"measurement": "% Block of TOC, PROCEDURE 1 DRG %", "setting": "[1]; 10 μM", "value": 32, "unit": "%"},
      {"measurement": "% Block of TOC, PROCEDURE 2 GH3 %", "setting": "[2]", "value": 68, "unit": "%"}
    ]},
    {"compound": "COc1ccc(C[C@@H]2CC[C@H]3NC[C@H](CO)C[C@@H]3C2)cc1", "note": "(racemic) [Example 2, (±)-(3RS,4aSR,6RS,8aRS)-1,2,3,4,4a,5,6,7,8,8a-Decahydro-3-hydroxymethyl-6-((4-methoxyphenyl)methyl)quinoline]", "values": [
      {"measurement": "% Block of TOC, PROCEDURE 2 GH3 %", "setting": "[2]", "value": 31, "unit": "%"}
    ]},
    {"compound": "COc1ccc(CC2CCC3NCC(CO)CC3C2)cc1", "note": "(stereo not drawn) [Example 1, 1,2,3,4,4a,5,6,7,8,8a-Decahydro-3-hydroxymethyl-6-((4-methoxyphenyl)methyl)quinoline]", "values": [
      {"measurement": "% Block of TOC, PROCEDURE 2 GH3 %", "setting": "[2]", "value": 55, "unit": "%"}
    ]},
    {"compound": "Nc1ccncc1", "note": "[4-aminopyridine, reference compound]", "values": [
      {"measurement": "block of TOC (standard compound)", "setting": "[1]; at 1 mM", "value": 100, "unit": "%"},
      {"measurement": "block (standard compound), in words", "setting": "[2]; @ 1-5 mM", "value": "block"},
      {"measurement": "block (standard compound)", "setting": "[2]; at 5 mM", "value": 80, "unit": "%"}
    ]}
  ]
}
